This is an account of results in patent EP3130594B1, “PHOSPHONATES OF ACETYLENIC BETULIN DERIVATIVES WITH ANTICANCER ACTIVITY, METHOD FOR THEIR PRODUCTION AND THEIR APPLICATION” (Slaski Uniwersytet Medyczny w Katowicach, priority 2015, dated 2017).

≈ marks a conversion by molar mass, not a printed value.

Common to all, as to assay: Cytotoxic activity in vitro, WST1 test
The test system of series [1] is brain glioma SNB-19. The class given is cell-based. The note with it: Homo sapiens, SNB-19 cells, read-out: Cytotoxic activity in vitro as IC50. The protocol:
(§1) The evaluation of cytotoxic activity of the compounds described with Formula 2 was carried out against human cancer cells [brain glioma SNB-19, breast cancer T47D, melanoma C32] using WST1 tests (Table 1).

The test system of series [2] is breast cancer T47D. The class given is cell-based, human. The following applies: T47D cells, Neg = no activity in the applied concentration range; for IC50: Homo sapiens, read-out: Cytotoxic activity in vitro as IC50. On the procedure: as §1
In series [3] the test system is melanoma C32. The class given is cell-based. The note with it: Homo sapiens, C32 cells, read-out: Cytotoxic activity in vitro as IC50. The protocol: as §1

For the molecule `C=C(C)[C@@H]1CC[C@]2(CO)CC[C@]3(C)[C@H](CC[C@@H]4[C@@]5(C)CC[C@H](O)C(C)(C)[C@@H]5CC[C@]43C)[C@@H]12` [Betulin, lup-20(29)-ene-3β,28-diol], the half-inhibitory concentration (IC50) amounted to 23.5 ± 2 µg/mL (≈ 53.1 µM) in series [1] and 77.9 ± 4 µg/mL (≈ 176 µM) in series [2].
In the case of `CCOP(=O)(/C=C(\C)[C@@H]1CC[C@]2(COC(=O)C#CC3CC3)CC[C@]3(C)[C@H](CC[C@@H]4[C@@]5(C)CC[C@H](O)C(C)(C)[C@@H]5CC[C@]43C)[C@@H]12)OCC` [28-cyclopropylpropynoyl-29-diethoxyphosphorylbetulin], the values for the 50% inhibitory concentration (IC50) in series [3], in series [1] and in series [2] were 4.7 ± 0.7 µg/mL (≈ 7.01 µM), 2.2 ± 0.8 µg/mL (≈ 3.28 µM) and 8.2 ± 0.6 µg/mL (≈ 12.2 µM), respectively.
Turning to `C=C(CP(=O)(OCC)OCC)[C@@H]1CC[C@]2(COC(C)=O)CC[C@]3(C)[C@H](CC[C@@H]4[C@@]5(C)CC[C@H](OC(C)=O)C(C)(C)[C@@H]5CC[C@]43C)[C@@H]12` [R = R1 = Et, R2 = AcO, R3 = CH2OAc, 3, 28 - Diacetyl - 30 - diethoxyphosphorylbetulin], the figures for the half-inhibitory concentration (IC50) in series [1] and in series [2] were 51.9 ± 0.8 µg/mL (≈ 78.3 µM) and 58 ± 3.4 µg/mL (≈ 87.5 µM), respectively.
As for `C#CCOC(=O)OC[C@]12CC[C@@H](/C(C)=C/P(=O)(OCC)OCC)[C@@H]1[C@H]1CC[C@@H]3[C@@]4(C)CC[C@H](OC(=O)OCC#C)C(C)(C)[C@@H]4CC[C@@]3(C)[C@]1(C)CC2` [29-diethoxyphosphoryl-3,28-di(propargyloxycarbonyl)betulin], the IC50 in series [3] stood at 51.7 ± 4.8 µg/mL (≈ 69.6 µM); in series [1], 0.5 ± 0.1 µg/mL (≈ 0.673 µM). Further, the “Cytotoxic activity in vitro as IC50” value in series [2] is on record as “Neg”.
For the molecule `CCOP(=O)(/C=C(\C)[C@@H]1CC[C@]2(COC(=O)C#CC3CC3)CC[C@]3(C)[C@H](CC[C@@H]4[C@@]5(C)CC[C@H](OC(=O)C#CC6CC6)C(C)(C)[C@@H]5CC[C@]43C)[C@@H]12)OCC` [3,28-Di(cyclopropylpropynoyl)-29-diethoxyphosphorylbetulin], the IC50 came to 9.4 ± 0.2 µg/mL (≈ 12.3 µM) in series [3], 40.4 ± 6.8 µg/mL (≈ 52.9 µM) in series [1] and 79.5 ± 1.9 µg/mL (≈ 104 µM) in series [2].
For `CC#CC(=O)OC[C@]12CC[C@@H](/C(C)=C/P(=O)(OCC)OCC)[C@@H]1[C@H]1CC[C@@H]3[C@@]4(C)CC[C@H](OC(=O)C#CC)C(C)(C)[C@@H]4CC[C@@]3(C)[C@]1(C)CC2` [3,28-Di(2-butynoyl)-29-diethoxyphosphorylbetulin], in that order: 4.9 ± 0.3 µg/mL (≈ 6.89 µM), 7.6 ± 1 µg/mL (≈ 10.7 µM) and 13.9 ± 3.4 µg/mL (≈ 19.6 µM).
Consider `CCOP(=O)(/C=C(/C)[C@@H]1CC[C@]2(CO)CC[C@]3(C)[C@H](CC[C@@H]4[C@@]5(C)CC[C@H](O)C(C)(C)[C@@H]5CC[C@]43C)[C@@H]12)OCC` [cis R = R1 = Et, R2 =OH, R3 = CH2OH, Z - 29 - Diethoxyphosphorylbetulin], for which the IC50 came to 4.8 ± 0.1 µg/mL (≈ 8.29 µM) in series [1] and 0.9 ± 0.1 µg/mL (≈ 1.55 µM) in series [2].
With `CC#CC(=O)OC[C@]12CC[C@@H](/C(C)=C/P(=O)(OCC)OCC)[C@@H]1[C@H]1CC[C@@H]3[C@@]4(C)CC[C@H](O)C(C)(C)[C@@H]4CC[C@@]3(C)[C@]1(C)CC2` [R = R1 =Et, R2 =HO, R3 =CH2OC(O)C ≡ CCH3, 28-(2-butynoyl)-29-diethoxyphosphorylbetulin], the concentration for half-maximal inhibition (IC50) worked out at 4.9 ± 0.1 µg/mL (≈ 7.6 µM) in series [3], 7.5 ± 0.3 µg/mL (≈ 11.6 µM) in series [1] and 9.6 ± 0.6 µg/mL (≈ 14.9 µM) in series [2].
`C#CC(=O)OC[C@]12CC[C@@H](/C(C)=C/P(=O)(OCC)OCC)[C@@H]1[C@H]1CC[C@@H]3[C@@]4(C)CC[C@H](O)C(C)(C)[C@@H]4CC[C@@]3(C)[C@]1(C)CC2` [R = R1 = Et, R2 = HO, R3 =CH2C(O)C≡CH, 29-Diethoxyphosphoryl-28-propynoylbetulin]: the IC50 in series [1] amounted to 0.3 ± 0.1 µg/mL (≈ 0.476 µM); in series [2], 0.4 ± 0.1 µg/mL (≈ 0.634 µM).
For `CCOP(=O)(/C=C(\C)[C@@H]1CC[C@]2(CO)CC[C@]3(C)[C@H](CC[C@@H]4[C@@]5(C)CC[C@H](O)C(C)(C)[C@@H]5CC[C@]43C)[C@@H]12)OCC` [trans R = R1 =Et, R2= OH, R3 = CH2OH, E-29-Diethoxyphosphorylbetulin], in that order: 5.9 ± 0.4 µg/mL (≈ 10.2 µM) and 6.2 ± 0.5 µg/mL (≈ 10.7 µM).
In the case of `C#CCOC(=O)OC[C@]12CC[C@@H](/C(C)=C/P(=O)(OCC)OCC)[C@@H]1[C@H]1CC[C@@H]3[C@@]4(C)CC[C@H](O)C(C)(C)[C@@H]4CC[C@@]3(C)[C@]1(C)CC2` [29-Diethoxyphosphoryl-28-propargyloxycarbonylbetulin], the IC50 in series [3] amounted to 5.9 ± 0.3 µg/mL (≈ 8.93 µM); in series [1], 24.5 ± 12.6 µg/mL (≈ 37.1 µM); in series [2] it was 49.4 ± 6.1 µg/mL (≈ 74.7 µM).
In the case of `C#CC(=O)OC[C@]12CC[C@@H](/C(C)=C/P(=O)(OCC)OCC)[C@@H]1[C@H]1CC[C@@H]3[C@@]4(C)CC[C@H](OC(=O)C#C)C(C)(C)[C@@H]4CC[C@@]3(C)[C@]1(C)CC2` [R=R1=Et, R2=HC≡CC(O)O, R3 = CH2C(O)C≡CH, 29-Diethoxyphosphoryl-3,28-dipropynoylbetulin], the half-maximal inhibitory concentration (IC50) in series [1] is 0.6 ± 0.1 µg/mL (≈ 0.879 µM); in series [2] it was 2.8 ± 0.6 µg/mL (≈ 4.1 µM).
